Data set [1] concerns the target T1, human recombinant full-length MKK7 (Homo sapiens, UniProt O14733).
T1 construct: human recombinant full-length MKK7 (residues M1-R419, as in NCBI/Protein entry NP_660186.1); purchased ProQinase GmbH, Freiburg, Germany
T1 sequence (O14733 1-419): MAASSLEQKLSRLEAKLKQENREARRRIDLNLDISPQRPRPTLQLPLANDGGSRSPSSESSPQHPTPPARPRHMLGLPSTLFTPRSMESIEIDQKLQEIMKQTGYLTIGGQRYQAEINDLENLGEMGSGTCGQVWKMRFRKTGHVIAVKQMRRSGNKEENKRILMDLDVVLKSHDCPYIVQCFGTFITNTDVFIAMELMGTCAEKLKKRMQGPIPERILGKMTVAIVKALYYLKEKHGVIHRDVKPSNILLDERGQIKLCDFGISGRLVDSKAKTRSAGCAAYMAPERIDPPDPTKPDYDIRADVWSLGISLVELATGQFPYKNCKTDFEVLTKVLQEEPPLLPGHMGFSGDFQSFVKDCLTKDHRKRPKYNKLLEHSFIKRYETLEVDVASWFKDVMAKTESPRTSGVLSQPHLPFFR
Description: SPR binding of GADD45β69–86 to immobilized recombinant MKK7 (ProteOn XPR36). The note with it: heterogenous ligand model. On the procedure:
Figure 2 GADD45β69–86 interacts with recombinant MKK7. Starting at time 0, the indicated concentrations of GADD45β69–86 were injected for 150 s over SPR sensor surfaces on which 5000 RUs of human recombinant MKK7 had been previously captured by amine coupling. The SPR chip was then washed with buffer alone to monitor ligand dissociation. Fitted sensorgrams show GADD45β69–86 binding to recombinant MKK7 in RUs. The data were obtained by subtracting the reference channels, containing bovine serum albumin or no polypeptides.
Binding studies were performed on a ProteOn XPR36 Protein Interaction Array system (Bio-Rad Laboratories, Hercules, CA, USA). Detection of GADD45β69–86 interaction with MKK7 was performed by immobilizing ~5000 resonance units (RUs) of human recombinant full-length MKK7 (residues M1-R419, as in NCBI/Protein entry NP_660186.1; ProQinase GmbH, Freiburg, Germany) on the surface of a sensor chip (GL-C chip, Bio-Rad) by amine-coupling chemistry. GADD45β69–86 molecules were then perfused over the chip for 150 s to allow association, followed by 500 s buffer (PBST) wash to monitor dissociation. Signals were normalized to control channels containing ~5000 RUs of bovine serum albumin or no proteins. […]

Data set [2] concerns MKK7 (P-MKK7/MKK7) in cortical neurons. Put plainly: Western blot P-MKK7/MKK7 ratio in cortical neurons. The note with it: 100 μM NMDA, versus CTR, n=6.
For data set [3], the system named is cortical neurons (12 h OGD). Description: LDH assay, protection against oxygen–glucose deprivation (OGD). The note with it: 5 μM, 30 min pre-treatment, n=6, P<0.01. The data set is classed as cell-based, rat. How it is done:
OGD was performed on cortical neurons maintained in an Hypoxia Incubator Chamber (StemCell Technologies, Vancouver, BC, Canada) for 12 h; during the first 4 min, oxygen in the chamber was replaced by a mixture of 95% N2 5% CO2; glucose deprivation was realized by substituting culture medium with glucose-free Neurobasal Medium (Life Technologies).
(§1) Neuroprotection was evaluated by an LDH assay.

Data set [4] has as its system middle cerebral artery occlusion (MCAo) in rats. Put plainly: MCAo model (electrocoagulation), infarct volume by TTC staining. The data set is classed as in vivo, Sprague–Dawley rats.
In data set [5] the test system is MKK7 (P-MKK7/MKK7) in ipsilateral brain of MCAo rats. Put plainly: Western blot P-MKK7/MKK7 ratio in ischemic brain tissue. The data set is classed as in vivo, Sprague–Dawley rats. The note with it: 11 mg/kg 30 min before MCAO, n=3, P<0.05. How it is done: Actin was used as loading control. […] Actin was used as loading control. […] Actin was used as loading control. […] Actin was used as loading control.
Part I. Ischemia reperfusion (n=43). […] After 90 min, the clip was removed. […] Animals were initially killed 24 h post lesion.

The test system of data set [6] is 12 DIV cortical neurons. Put plainly: LDH assay, intrinsic toxicity of peptides on cortical neurons. The settings on record: 24 h treatment, 1, 2.5, 5 and 10 μM; one-way ANOVA, P>0.05, n=8. The data set is classed as cell-based, rat. On the procedure: as §1
Data set [7] concerns MKK7. The settings on record: cited from earlier work. The text has this: (§2) We took advantage of the growth arrest and DNA damage-inducible 45β (GADD45β) ability to bind MKK7.[9], [14], [15] GADD45β is involved in the control of cell stress responses in cell cycle, DNA repair and oncogenesis.[9], [16] […] More importantly, GADD45β inhibition is MKK7-specific and has no effect on MKK4, MKK3/6 and MEK1/2 activity.[9] The minimal essential domain of interaction between MKK7 and GADD45β has already been defined (GADD45β60–86 and 69–86 sequences).[15] We here used ...

Data set [8] concerns MKK3/6. The note with it: cited from earlier work.
From the text: as §2

The test system of data set [9] is MKK4. The note with it: cited from earlier work.
From the text: as §2

The test system of data set [10] is MEK1/2. The settings on record: cited from earlier work.
From the text: as §2

Data set [11] deals with T2, human recombinant full-length MKK7 (mitogen-activated protein kinase kinase 7) (human, UniProt O14733-1 1-419).
T2 construct: the vendor's protein may carry one (surmise); also called recombinant MKK7; source: bought: ProQinase GmbH
T2 sequence (looked up): T1 sequence (O14733 1-419)
Put plainly: SPR; ProteOn XPR36, GL-C chip; ~5000 RU of human recombinant full-length MKK7 immobilised by amine coupling; GADD45β_(69–86) perfused 150 s, then 500 s buffer (PBST) wash; referenced to channels with ~5000 RU bovine serum albumin or no protein; heterogenous ligand binding model. The settings on record: both partners purified.

Residues, ends and D or L forms follow the SMILES beside them. No end group written: not given here.

The values that follow come from publication PMC4558515, “Exploring the role of MKK7 in excitotoxicity and cerebral ischemia: a novel pharmacological strategy against brain injury” (Cell Death & Disease, 2015).

In the case of `CC[C@H](C)[C@H](N)C(=O)N[C@@H](C)C(=O)N[C@@H](CC(C)C)C(=O)N[C@@H](CCC(N)=O)C(=O)N[C@H](C(=O)N[C@@H](Cc1c[nH]cn1)C(=O)N[C@@H](Cc1ccccc1)C(=O)N[C@H](C(=O)N[C@@H](CC(C)C)C(=O)N[C@H](C(=O)N[C@@H](CCC(N)=O)C(=O)N[C@@H](CO)C(=O)N[C@@H](Cc1ccccc1)C(=O)N[C@@H](CS)C(=O)N[C@@H](CS)C(=O)N[C@@H](CC(=O)O)C(=O)N[C@@H](CC(N)=O)C(=O)N[C@@H](CC(=O)O)C(N)=O)[C@@H](C)CC)[C@@H](C)O)[C@@H](C)CC` [GADD45β69–86] (H-IALQIHFTLIQSFCCDND-NH2), in data set [1], the koff is 0.0013 s⁻¹ and the kon worked out at 315 M⁻¹ s⁻¹.

For the molecule `CN[C@H](CC(=O)O)C(=O)O` [NMDA, N-methyl-D-aspartate, reference compound], the “increase of MKK7 phosphorylation” value in data set [2] (5 min) amounted to 1.7 fold; in data set [2] (30 min) it was 1.5 fold; in data set [2] (60 min) it was 1.9 fold.

For the molecule “TAT-spacer-GADD45β60–86: cell-permeable MKK7 inhibitor peptide with spacer between TAT and GADD45β residues 60–86”, in data set [3], the “inhibition of neuronal death induced by OGD (LDH)” value amounted to 95%. Further, the “reduction of infarct volume (abstract)” value in data set [4] (1 week after MCAo, administration time not given) is recorded as 49%. Besides, the “infarct volume, in words” value in data set [4] (12-h post-ischemic injection, not shown) is “did not significantly decrease the infarct volume”. Further, the “percentage of ischemic volume on the whole rat brain” value in data set [4] (30 min before lesion, 24 h after lesion, mean±s.d., n=6, control 13.72±4.07% (n=5), P<0.01) was 7.85±2.03%; in data set [4] (injected 6 h post lesion, 24 h after lesion, mean±S.D., n=5, P<0.01), 8.04±1.04%. Further, the “reduction of infarcted volume” value in data set [4] (ICV (2 μl of 11 μg/μl; legend: 11 mg/kg) 30 min before lesion, 24 h after lesion, P<0.01) came to 43%. The “reduction of infarct volume” value in [4] (injected 6 h post ischemia, 1 week after MCAo) is on record as 44%; in [4] (pre-ischemic (30 min before) administration, 1 week after MCAo) it was roughly 50%. Moreover, the “reduction of infarct volume (Conclusions)” value in data set [4] (injected 6 h post ischemia, 1 week after lesion) came out at 49%. Also, the “percentage of ischemic volume” value in data set [4] (injected 6 h post lesion, 1 week after MCAo, mean±S.D., n=5, P<0.01) turned out to be 6.95±0.93%; in data set [4] (pre-ischemic (30 min before) administration, 1 week after MCAo, mean±S.D., n=5, control 12.42±2.22% (n=5), P<0.01), 6.22±0.98%. Moreover, the “reduction of P-MKK7/MKK7 ratio” value came out at 54% in data set [5] (3 h after ischemia) and 33% in [5] (6 h after ischemia). In [6], the “neuronal death (LDH), intrinsic toxicity” value was “did not induce neuronal death”.

B1: GADD45β: growth arrest and DNA damage-inducible 45β protein, binds MKK7 (protein, UniProt O75293 1-160, looked up)
Growth arrest and DNA …: MTLEELVACDNAAQKMQTVTAAVEELLVAAQRQDRLTVGVYESAKLMNVDPDSVVLCLLAIDEEEEDDIALQIHFTLIQSFCCDNDINIVRVSGMQRLAQLLGEPAETQGTTEARDLHCLLVTNPHTDAWKSHGLVEVASYCEESRGNNQWVPYISLQER
B1: in [7], the “binding to MKK7, in words” value was “binds tightly to MKK7” and the “inhibition of MKK7 enzymatic activity, in words” value is “inhibits its enzymatic activity”. In addition, the “effect on MKK3/6 activity, in words” value in [8] was “no effect”. For the same molecule, the “effect on MKK4 activity, in words” value in [9] is given as “no effect”. Moreover, the “effect on MEK1/2 activity, in words” value in data set [10] is reported as “no effect”.

B2: GADD45β_(69–86) peptide (peptide)
peptide: IALQIHFTLIQSFCCDND
modifications: not fully specified (C-terminus); cysteine pairing not given here
notes: growth arrest and DNA damage-inducible 45β (GADD45β), residues 69-86 (the α-helix)
Turning to B2, the dissociation constant Kd in [11] came to 3.71 µM.
